Here are results for one compound from patent US6576780B1, “Hydroxyamidino derivatives useful as nitric oxide synthase inhibitors” (GD Searle & Company, priority 1996, dated 2003).

Assay [1] concerns the target T1, mouse inducible NOS (miNOS) (Mus musculus, UniProt P29477).
T1 construct: prepared from an extract of LPS-treated mouse RAW 264.7 cells; endogenous in cells; host or cells: LPS-treated mouse RAW 264.7 cells
Nature of the assay: Citrulline assay for nitric oxide synthase, miNOS. Format: biochemical. The settings on record: partially purified enzyme from LPS-treated RAW 264.7 cells. The method, then:
(§1) NOS activity was measured by monitoring the conversion of L-[2,3-^3H]-arginine to L-[2,3- H]-citrulline. Mouse inducible NOS (miNOS) was prepared from an extract of LPS-treated mouse RAW 264.7 cells and rat brain constitutive NOS (rnNOS) was prepared from an extract of rat cerebellum. Both preparations were partially purified by DEAE-Sepharose chromatography. Enzyme (10 μL) was added to 40 μL of 50 mM Tris (pH 7.6) and the reaction initiated by the addition of 50 μL of a solution containing 50 mM Tris (pH 7.6), 2.0 mg/mL bovine serum albumin, 2.0 mM DTT, 4.0 mM CaCl2, 20 μM FAD, 100 &M tetrahydrobiopterin, 2.0 mM NADPH and 60 μM L-arginine containing 0.9 μCi of L-[2,3-^3H]-arginine. For constitutive NOS, calmodulin was included at a final concentration of 40 nM. Following incubation at 37° C. for 15 minutes, the reaction was terminated by addition of 300 μL cold buffer containing 10 mM EGTA, 100 mM HEPES (pH 5.5) and 1.0 mM L-citrulline. The [^3H]-citrulline was separated by chromatography on Dowex 50W X-8 cation exchange resin and radioactivity quantified with a liquid scintillation counter.

In assay [2] the target is T2, rat brain constitutive NOS (rnNOS) (Rattus norvegicus, UniProt P29476).
T2 construct: was prepared from an extract of rat cerebellum; from tissue; host or cells: rat cerebellum
Nature of the assay: Citrulline assay for nitric oxide synthase, rnNOS. Format: biochemical. The settings on record: partially purified enzyme from rat cerebellum. The method, then: as §1

The subject of the next assay is RAW 264.7 cells. Nature of the assay: Raw cell nitrite assay. The assay is classed as cell-based. The note with it: Mus musculus, RAW264.7, cultured RAW 264.7 cells, LPS-induced. As to the method:
RAW 264.7 cells are plated to confluency on a 96-well tissue culture plate grown overnight (17 h) in the presence of LPS to induce NOS. A row of 3-6 wells were left untreated and served as controls for subtraction of nonspecific background. The media was removed from each well and the cells are washed twice with Kreb-Ringers-Hepes (25 mM, pH 7.4) with 2 mg/ml glucose. The cells are then placed on ice and incubated with […] of buffer containing L-arginine (30 mM) +/− inhibitors for 1 h. The assay is initiated by warming the plate to 37° C. in a water bath for 1 h. Production of nitrite by intracellular iNOS is linear with time. To terminate the cellular assay, the plate of cells is placed on ice and the nitrite-containing buffer removed and analyzed for nitrite using a previously published fluorescent determination for nitrite. T. P. Misko et al, Analytical Biochemistry, 214, 11-16 (1993). All values are the average of triplicate wells and are compared to a background-subtracted induced set of cells (100% value).

For assay [3], the target named is recombinant human inducible NOS (hiNOS) (Homo sapiens, UniProt P35228). Nature of the assay: Human in vitro enzyme data, hiNOS. Format: biochemical.
Assay [4] addresses recombinant human endothelial constitutive NOS (hecNOS) (Homo sapiens, UniProt P29474). In words: Human in vitro enzyme data, hecNOS. The assay is classed as biochemical.
In assay [5] the target is recombinant human neuronal constitutive NOS (hncNOS) (Homo sapiens, UniProt P29475). In words: Human in vitro enzyme data, hncNOS. The assay is classed as biochemical.
In assay [6] the test system is plasma nitrites induced by endotoxin (LPS). Nature of the assay: In vivo low-endotoxin (Low Dose LPS) assay. The arrangement: species or system rat. The note with it: rats, LPS i.p., plasma nitrites 5 hours post-treatment. As to the method: Rats were treated with an intraperitoneal injection of 10 mg/kg of endotoxin (LPS) with or without oral administration of the nitric oxide synthase inhibitors. Plasma nitrites were measured 5 hours post-treatment.

Counter-ions that a name gives are not always drawn.

Turning to `C/C(=N\O)NCCCC[C@H](N)C(=O)O` [Example 1, N^6-[1-(Hydroxyimino)ethyl]-L-lysine, Dihydrochloride], the half-inhibitory concentration (IC50) – broadly, the point on the concentration scale where inhibition reaches its midpoint – in assay [1] stood at 77 µM; in assay [2] it was 1470 µM; in the assay on RAW 264.7 cells it was 28 µM; in assay [3], 154 µM; in assay [4], 1470 µM; in assay [5] it was 907 µM. Moreover, the “Inhibition of LPS-induced plasma nitrite” value in assay [6] (0.1 mg/kg/day p.o.) amounted to 0% inh; in assay [6] (1 mg/kg/day p.o.), 54% inh; in assay [6] (10 mg/kg/day p.o.), 97% inh.
